Assay results as given in patent US11659837B2, “Mixtures comprising an urease inhibitor (UI) and a nitrification inhibitor such as 2-(3,4-dimethyl-1H-pyrazol-1-yl)succinic acid (DMPSA) or 3,4-dimethyl pyrazolium glycolate (DMPG)” (BASF SE, priority 2017, dated 2023).

Test system: N2O emissions from soils
Test: Greenhouse experiment: detection of nitrous oxide (N2O) losses from pots
Details: urea
Source text: Detection of Nitrous Oxide Losses:
On application day (DATO), each pot (with/without plants or algae) was set onto a plant saucer designed with an inner compartment for the pot and an outer ring that is filled with water. At time 0, water holding capacity of the soil was set to 60-70% prior to application with/without fertilizer and a.i. Subsequently, a gas sampling chamber was placed over the plant saucer such that the rim fit into the ring filled with water to create a gas-tight chamber and 25 cc air from the chamber were drawn into a syringe and immediately emptied in to a Vacutainer (Labco, 12 ml volume). This equals the Time 0 measurement for each pot. The same procedure was performed with all pots in the experiment. After two hour incubation time, again 25 cc air samples were taken from the gas chambers and emptied into Vacutainers as described above. Plants were then returned to their positions in the climate chamber. The procedure was repeated at precisely the same time of day for up to 19 days.
Samples were analyzed in a Shimadzu 2014 GC equipped with an ECD system.

[1] = DAT 1, NI 0.20, UI 0.01 where present
[2] = DAT 1, NI 0.35, UI 0.01 where present
[3] = DAT 1, NI 0.50, UI 0.01 where present
[4] = DAT 2, NI 0.20, UI 0.01 where present
[5] = DAT 2, NI 0.35, UI 0.01 where present
[6] = DAT 2, NI 0.50, UI 0.01 where present
[7] = DAT 3, NI 0.20, UI 0.01 where present
[8] = DAT 3, NI 0.35, UI 0.01 where present
[9] = DAT 3, NI 0.50, UI 0.01 where present
[10] = DAT 4, NI 0.20, UI 0.01 where present
[11] = DAT 4, NI 0.35, UI 0.01 where present
[12] = DAT 4, NI 0.50, UI 0.01 where present
[13] = DAT 5, NI 0.20, UI 0.01 where present
[14] = DAT 5, NI 0.35, UI 0.01 where present
[15] = DAT 5, NI 0.50, UI 0.01 where present
[16] = DAT 6, NI 0.20, UI 0.01 where present
[17] = DAT 6, NI 0.35, UI 0.01 where present
[18] = DAT 6, NI 0.50, UI 0.01 where present
[19] = DAT 7, NI 0.20, UI 0.01 where present
[20] = DAT 7, NI 0.35, UI 0.01 where present
[21] = DAT 7, NI 0.50, UI 0.01 where present
[22] = DAT 8, NI 0.20, UI 0.01 where present
[23] = DAT 8, NI 0.35, UI 0.01 where present
[24] = DAT 8, NI 0.50, UI 0.01 where present
[25] = DAT 10, NI 0.20, UI 0.01 where present
[26] = DAT 10, NI 0.35, UI 0.01 where present
[27] = DAT 10, NI 0.50, UI 0.01 where present
[28] = DAT 12, NI 0.20, UI 0.01 where present
[29] = DAT 12, NI 0.35, UI 0.01 where present
[30] = DAT 12, NI 0.50, UI 0.01 where present
[31] = DAT 16, NI 0.20, UI 0.01 where present
[32] = DAT 16, NI 0.35, UI 0.01 where present
[33] = DAT 16, NI 0.50, UI 0.01 where present
[34] = DAT 19, NI 0.20, UI 0.01 where present
[35] = DAT 19, NI 0.35, UI 0.01 where present
[36] = DAT 19, NI 0.50, UI 0.01 where present

Q: Which “Nitrous oxide (N2O) emissions, cumulated values” (“Nitrous oxide … cumulated values” below) [1] does the source give for `Cc1cn(C(CC(=O)[O-])C(=O)[O-])nc1C.[K+].[K+]` (stereo not shown) [DMPSA-K2] here?
A: The value was 8.97 μg N2O—N/m2*h.

Q: And the “Nitrous oxide … cumulated values” [2]?
A: The value was 7.74 μg N2O—N/m2*h.

Q: What about the “Nitrous oxide … cumulated values” [3] of the same compound?
A: Its value is 7.62 μg N2O—N/m2*h.

Q: What about the “Nitrous oxide … cumulated values” [4] of the same compound?
A: The value was 19.30 μg N2O—N/m2*h.

Q: And the “Nitrous oxide … cumulated values” [5]?
A: The value was 18.94 μg N2O—N/m2*h.

Q: And the “Nitrous oxide … cumulated values” [6]?
A: Its value is 20.18 μg N2O—N/m2*h.

Q: And the “Nitrous oxide … cumulated values” [7]?
A: The value was 29.75 μg N2O—N/m2*h.

Q: And the “Nitrous oxide … cumulated values” [8]?
A: Its value is 29.26 μg N2O—N/m2*h.

Q: And the “Nitrous oxide … cumulated values” [9]?
A: The value was 30.31 μg N2O—N/m2*h.

Q: What about the “Nitrous oxide … cumulated values” [10] of the same compound?
A: Its value is 37.16 μg N2O—N/m2*h.

Q: And the “Nitrous oxide … cumulated values” [11]?
A: The value was 37.09 μg N2O—N/m2*h.

Q: And the “Nitrous oxide … cumulated values” [12]?
A: The value was 37.69 μg N2O—N/m2*h.

Q: What about the “Nitrous oxide … cumulated values” [13] of the same compound?
A: The value was 45.99 μg N2O—N/m2*h.

Q: What about the “Nitrous oxide … cumulated values” [14] of the same compound?
A: Its value is 46.55 μg N2O—N/m2*h.

Q: What about the “Nitrous oxide … cumulated values” [15] of the same compound?
A: The value was 46.97 μg N2O—N/m2*h.

Q: What about the “Nitrous oxide … cumulated values” [16] of the same compound?
A: The value was 52.71 μg N2O—N/m2*h.

Q: And the “Nitrous oxide … cumulated values” [17]?
A: The value was 52.67 μg N2O—N/m2*h.

Q: And the “Nitrous oxide … cumulated values” [18]?
A: Its value is 52.44 μg N2O—N/m2*h.

Q: And the “Nitrous oxide … cumulated values” [19]?
A: The value was 60.65 μg N2O—N/m2*h.

Q: And the “Nitrous oxide … cumulated values” [20]?
A: Its value is 60.12 μg N2O—N/m2*h.

Q: What about the “Nitrous oxide … cumulated values” [21] of the same compound?
A: The value was 62.57 μg N2O—N/m2*h.

Q: What about the “Nitrous oxide … cumulated values” [22] of the same compound?
A: Its value is 68.52 μg N2O—N/m2*h.

Q: What about the “Nitrous oxide … cumulated values” [23] of the same compound?
A: Its value is 70.52 μg N2O—N/m2*h.

Q: And the “Nitrous oxide … cumulated values” [24]?
A: Its value is 72.03 μg N2O—N/m2*h.

Q: What about the “Nitrous oxide … cumulated values” [25] of the same compound?
A: The value was 77.59 μg N2O—N/m2*h.

Q: And the “Nitrous oxide … cumulated values” [26]?
A: The value was 77.77 μg N2O—N/m2*h.

Q: And the “Nitrous oxide … cumulated values” [27]?
A: The value was 79.00 μg N2O—N/m2*h.

Q: What about the “Nitrous oxide … cumulated values” [28] of the same compound?
A: The value was 85.15 μg N2O—N/m2*h.

Q: And the “Nitrous oxide … cumulated values” [29]?
A: Its value is 81.35 μg N2O—N/m2*h.

Q: What about the “Nitrous oxide … cumulated values” [30] of the same compound?
A: Its value is 82.43 μg N2O—N/m2*h.

Q: What about the “Nitrous oxide … cumulated values” [31] of the same compound?
A: Its value is 87.97 μg N2O—N/m2*h.

Q: What about the “Nitrous oxide … cumulated values” [32] of the same compound?
A: Its value is 84.12 μg N2O—N/m2*h.

Q: And the “Nitrous oxide … cumulated values” [33]?
A: The value was 84.05 μg N2O—N/m2*h.

Q: And the “Nitrous oxide … cumulated values” [34]?
A: The value was 88.83 μg N2O—N/m2*h.

Q: What about the “Nitrous oxide … cumulated values” [35] of the same compound?
A: The value was 84.94 μg N2O—N/m2*h.

Q: What about the “Nitrous oxide … cumulated values” [36] of the same compound?
A: Its value is 84.28 μg N2O—N/m2*h.

Q: And the “Nitrous oxide (N2O) emissions, % appl. N” value (NI 0.20, UI 0.01 where present)?
A: Its value is 0.381 % appl. N.

Q: And the “Nitrous oxide (N2O) emissions, % appl. N” value (NI 0.35, UI 0.01 where present)?
A: The value was 0.364 % appl. N.

Q: What about the “Nitrous oxide (N2O) emissions, % appl. N” value (NI 0.50, UI 0.01 where present) of the same compound?
A: Its value is 0.361 % appl. N.

Q: What does the source list for `Cc1cn(C(CC(=O)O)C(=O)O)nc1C.N.N` (stereo not shown) [DMPSA-di-NH4]?
A: Nitrous oxide (N2O) emissions, cumulated values [1]: 5.71 μg N2O—N/m2*h; Nitrous oxide (N2O) emissions, cumulated values [2]: 6.74 μg N2O—N/m2*h; Nitrous oxide (N2O) emissions, cumulated values [3]: 7.89 μg N2O—N/m2*h; Nitrous oxide (N2O) emissions, cumulated values [4]: 17.84 μg N2O—N/m2*h; Nitrous oxide (N2O) emissions, cumulated values [5]: 22.08 μg N2O—N/m2*h; Nitrous oxide (N2O) emissions, cumulated values [6]: 16.36 μg N2O—N/m2*h; Nitrous oxide (N2O) emissions, cumulated values [7]: 28.36 μg N2O—N/m2*h; Nitrous oxide (N2O) emissions, cumulated values [8]: 30.26 μg N2O—N/m2*h; Nitrous oxide (N2O) emissions, cumulated values [9]: 23.64 μg N2O—N/m2*h; Nitrous oxide (N2O) emissions, cumulated values [10]: 40.61 μg N2O—N/m2*h; Nitrous oxide (N2O) emissions, cumulated values [11]: 39.25 μg N2O—N/m2*h; Nitrous oxide (N2O) emissions, cumulated values [12]: 31.59 μg N2O—N/m2*h; Nitrous oxide (N2O) emissions, cumulated values [13]: 51.02 μg N2O—N/m2*h; Nitrous oxide (N2O) emissions, cumulated values [14]: 47.97 μg N2O—N/m2*h; Nitrous oxide (N2O) emissions, cumulated values [15]: 38.95 μg N2O—N/m2*h; Nitrous oxide (N2O) emissions, cumulated values [16]: 57.34 μg N2O—N/m2*h; Nitrous oxide (N2O) emissions, cumulated values [17]: 54.68 μg N2O—N/m2*h; Nitrous oxide (N2O) emissions, cumulated values [18]: 45.83 μg N2O—N/m2*h; Nitrous oxide (N2O) emissions, cumulated values [19]: 66.12 μg N2O—N/m2*h; Nitrous oxide (N2O) emissions, cumulated values [20]: 60.89 μg N2O—N/m2*h; Nitrous oxide (N2O) emissions, cumulated values [21]: 53.03 μg N2O—N/m2*h; Nitrous oxide (N2O) emissions, cumulated values [22]: 76.79 μg N2O—N/m2*h; Nitrous oxide (N2O) emissions, cumulated values [23]: 66.75 μg N2O—N/m2*h; Nitrous oxide (N2O) emissions, cumulated values [24]: 62.02 μg N2O—N/m2*h; Nitrous oxide (N2O) emissions, cumulated values [25]: 86.54 μg N2O—N/m2*h; Nitrous oxide (N2O) emissions, cumulated values [26]: 72.23 μg N2O—N/m2*h; Nitrous oxide (N2O) emissions, cumulated values [27]: 67.48 μg N2O—N/m2*h; Nitrous oxide (N2O) emissions, cumulated values [28]: 92.81 μg N2O—N/m2*h; Nitrous oxide (N2O) emissions, cumulated values [29]: 76.32 μg N2O—N/m2*h; Nitrous oxide (N2O) emissions, cumulated values [30]: 72.35 μg N2O—N/m2*h; Nitrous oxide (N2O) emissions, cumulated values [31]: 93.10 μg N2O—N/m2*h; Nitrous oxide (N2O) emissions, cumulated values [32]: 78.21 μg N2O—N/m2*h; Nitrous oxide (N2O) emissions, cumulated values [33]: 74.66 μg N2O—N/m2*h; Nitrous oxide (N2O) emissions, cumulated values [34]: 93.49 μg N2O—N/m2*h; Nitrous oxide (N2O) emissions, cumulated values [35]: 78.47 μg N2O—N/m2*h; Nitrous oxide (N2O) emissions, cumulated values [36]: 75.03 μg N2O—N/m2*h; Nitrous oxide (N2O) emissions, % appl. N (NI 0.20, UI 0.01 where present): 0.401 % appl. N; Nitrous oxide (N2O) emissions, % appl. N (NI 0.35, UI 0.01 where present): 0.337 % appl. N; Nitrous oxide (N2O) emissions, % appl. N (NI 0.50, UI 0.01 where present): 0.322 % appl. N

Q: How did the “Nitrous oxide … cumulated values” (DAT 1, no NI, UI 0.01) turn out when `CCCCNP(N)(N)=S` [NBPT, N-(n-butyl)thiophosphoric acid triamide, reference compound] was run?
A: Its value is 9.77 μg N2O—N/m2*h.

Q: And the “Nitrous oxide … cumulated values” (DAT 2, no NI, UI 0.01)?
A: The value was 27.42 μg N2O—N/m2*h.

Q: What about the “Nitrous oxide … cumulated values” (DAT 3, no NI, UI 0.01) of the same compound?
A: Its value is 40.07 μg N2O—N/m2*h.

Q: And the “Nitrous oxide … cumulated values” (DAT 4, no NI, UI 0.01)?
A: Its value is 53.70 μg N2O—N/m2*h.

Q: And the “Nitrous oxide … cumulated values” (DAT 5, no NI, UI 0.01)?
A: The value was 68.86 μg N2O—N/m2*h.

Q: And the “Nitrous oxide … cumulated values” (DAT 6, no NI, UI 0.01)?
A: The value was 89.16 μg N2O—N/m2*h.

Q: What about the “Nitrous oxide … cumulated values” (DAT 7, no NI, UI 0.01) of the same compound?
A: The value was 109.04 μg N2O—N/m2*h.

Q: And the “Nitrous oxide … cumulated values” (DAT 8, no NI, UI 0.01)?
A: The value was 127.94 μg N2O—N/m2*h.

Q: What about the “Nitrous oxide … cumulated values” (DAT 10, no NI, UI 0.01) of the same compound?
A: The value was 133.95 μg N2O—N/m2*h.

Q: What about the “Nitrous oxide … cumulated values” (DAT 12, no NI, UI 0.01) of the same compound?
A: Its value is 140.07 μg N2O—N/m2*h.

Q: And the “Nitrous oxide … cumulated values” (DAT 16, no NI, UI 0.01)?
A: The value was 143.31 μg N2O—N/m2*h.

Q: And the “Nitrous oxide … cumulated values” (DAT 19, no NI, UI 0.01)?
A: Its value is 146.30 μg N2O—N/m2*h.

Q: And the “Nitrous oxide (N2O) emissions, % appl. N” value (no NI, UI 0.01)?
A: Its value is 0.628 % appl. N.
